Source: publication PMC11863921 (BMC Biology, 2025)
Entries after “also recorded” stand apart in the source; their conditions may differ.

What was measured:
[1] = target: Acanthaster cf. solaris relaxin family peptide receptor/leucine-rich repeat G protein-coupled receptor 3, N-terminally modified (prolactin signal peptide, FLAG tag) (Acanthaster cf. solaris)
[2] = system: ArubRXFP/LGR3; assay: Luminescence (GFP-aequorin G5A, GqS5) assay in CHO-K1 cells transfected with ArubRXFP/LGR3; format: cell-based, A. rubens; settings: for luminescence response at 10^−5 M versus background: basal media as background; for EC50: 10^−14 to 10^−5 M, 35 s, three independent transfections, four-parameter fit, read-out: EC50 for induced luminescence; for luminescence response versus BSA control: 10–5 M, 30 s, one-way ANOVA with Bonferroni (***p < 0.001, *p < 0.1), Fig. S6; for dose-dependent triggering of luminescence: Fig. 6 A, B
Description: (§1) ArubRGP1 and ArubRGP2 were tested as ligands for ArubRXFP/LGR3 (isoform X2; XP_033631990.1) and ArubLGR4 (isoform X3; XP_033635731.1) by co-transfection of CHO-K1 cells stably expressing the green fluorescent protein (GFP) – apoaequorin construct G5A [25] with the chimeric G-protein Gqs5, which is a Gq-type protein modified to incorporate Gs-type sequences that enable it to interact with GPCRs that preferentially couple to Gs-type G-proteins. Synthetic ArubRGP1 or ArubRGP2 were initially tested at a concentration of 10^−5 M, comparing with luminescence measured in transfected cells incubated in basal media without the addition of ArubRGP1 or ArubRGP2.
(§2) A. rubens RGP1 and RGP2 (ArubRGP1, ArubRGP2) were custom synthesized with a purity of > 95%, as reported previously. Two genes encoding relaxin receptor-related proteins were identified in A. rubens and, informed by phylogenetic analysis, these were named ArubRXFP/LGR3 and ArubLGR4. Then cDNAs encoding these proteins were custom synthesized with the inclusion of a 5′ partial Kozak translation initiation sequence (GCCACC) and incorporated into the mammalian expression vector pcDNA 3.1( +) (Genscript, Hong Kong) (Additional file 18: Dataset S11). Likewise, a cDNA encoding an N-terminally modified form of ArubRXFP/LGR3 incorporating an N-terminal signal peptide from the bovine prolactin precursor was also synthesized (with codon optimization for mammalian expression) (Genewiz, Takeley, UK) and this is referred to henceforth as ArubRXFP/LGR3(modified) (Additional file 18: Dataset S11). Chinese hamster ovary cells (CHO-K1) stably expressing the calcium-sensitive aequorin fusion protein G5A were used as an expression system. This cell line was supplied by Prof. Gaspar Jékely (University of Heidelberg, Germany) and tested negative for mycoplasma contamination using a MycoAlert PLUS kit (Lonza, Switzerland). The CHO-K1 cells were cultured in a culture medium comprising DMEM/F12, 10% fetal bovine serum, antibiotic–antimycotic, and 20 µg/mol Geneticin G418 sulfate (all purchased from Thermo Fisher scientific, Oxford, UK; cat no. 11039047, 10,082,147, 15,240,062, and 10,131,035, respectively.) When the cells reached 80% confluency, they were co-transfected with plasmids containing cDNAs encoding ArubRXFP/LGR3, ArubRXFP/LGR3(modified), or ArubLGR4 and a plasmid encoding the chimeric G-protein GqS5 (Addgene, Watertown USA), which enables GPCRs that preferentially couple to Gq-type or Gs-type proteins to signal via the phospholipase-C signaling pathway.
AruRGP1 and AruRGP2 were tested as ligands for the A. rubens receptors using luminescence-based assays, which have been described previously. Thus, 48 h after transfection, cells were detached by using PBS buffer (pH7.4; Thermofisher Scientific, Oxford, UK; cat no.10010023) supplemented with a final concentration of 5 mM EDTA pH8.0 (Thermo Fisher Scientific, Oxford, UK; cat no.15575020). Cells were then washed with DMEM/F12 buffer and then incubated with […] coelenterazine-H (Thermo Fisher Scientific, Oxford, UK; cat no. C6780) at room temperature with stirring for 3 h. ArubRGP1 or ArubRGP2 were prepared at concentrations ranging from 10^−14 to 10^−5 M and then were pipetted into 96-well plates (Costar Assay microplate, REF: 3903 or Falcon 96 well microplate, Code: 353,377). A FLUOstar Omega Plate Reader (BMG LABTECH; FLUOstar Omega Series multi-mode microplate reader) with injectors was used to sequentially add transfected CHO-K1 cells to each test well of the microtiter plate and luminescence was recorded over a 35-s period. Luminescence data were integrated over the 35 s measurement period and the mean of the triplicate measurements was calculated. Responses were normalized to the maximum response obtained in each experiment (100% activation) and to luminescence measured with the vehicle media (0% activation) (Additional file 19: Dataset S12). […]

[3] = system: modified ArubRXFP/LGR3; assay: Luminescence (GFP-aequorin G5A, GqS5) assay in CHO-K1 cells transfected with modified ArubRXFP/LGR3; format: cell-based, A. rubens; settings: Fig. 6 C, D
Excerpt: Thus, modified ArubRXFP/LGR3 was similar in this respect to the modified AsolRXFP/LGR3 protein (Fig. 5).
A. rubens RGP1 and RGP2 (ArubRGP1, ArubRGP2) were custom synthesized with a purity of > 95%, as reported previously. Two genes encoding relaxin receptor-related proteins were identified in A. rubens and, informed by phylogenetic analysis, these were named ArubRXFP/LGR3 and ArubLGR4. Then cDNAs encoding these proteins were custom synthesized with the inclusion of a 5′ partial Kozak translation initiation sequence (GCCACC) and incorporated into the mammalian expression vector pcDNA 3.1( +) (Genscript, Hong Kong) (Additional file 18: Dataset S11). […]
(§3) AruRGP1 and AruRGP2 were tested as ligands for the A. rubens receptors using luminescence-based assays, which have been described previously. […] A FLUOstar Omega Plate Reader (BMG LABTECH; FLUOstar Omega Series multi-mode microplate reader) with injectors was used to sequentially add transfected CHO-K1 cells to each test well of the microtiter plate and luminescence was recorded over a 35-s period. Luminescence data were integrated over the 35 s measurement period and the mean of the triplicate measurements was calculated. Responses were normalized to the maximum response obtained in each experiment (100% activation) and to luminescence measured with the vehicle media (0% activation) (Additional file 19: Dataset S12). […]

[4] = system: ArubLGR4; assay: Luminescence (GFP-aequorin G5A, GqS5) assay in CHO-K1 cells transfected with ArubLGR4; format: cell-based, A. rubens; settings: for luminescence versus basal media: 10^−5 M; for luminescence response: 10^−14 to 10^−5 M, Fig. 6 E, F
Description: as §1
as §2, with “The CHO-K1 cells were cultured in a culture medium comprising DMEM/F12, 10% fetal bovine serum, antibiotic–antimycotic, and 20 µg/mol Geneticin G418 sulfate (all purchased from Thermo Fisher scientific, Oxford, UK; cat no. 11039047, 10,082,147, 15,240,062, and 10,131,035, respectively.) When the cells reached 80% confluency, they were co-transfected with plasmids containing cDNAs encoding ArubRXFP/LGR3, ArubRXFP/LGR3(modified), or ArubLGR4 and a plasmid encoding the chimeric G-protein GqS5 (Addgene, Watertown USA), which enables GPCRs that preferentially couple to Gq-type or Gs-type proteins to signal via the phospholipase-C signaling pathway.” left out
as §3

[5] = system: CHO-K1 cells transfected with an empty pcDNA3.1 + vector; assay: Luminescence (GFP-aequorin G5A, GqS5) assay in CHO-K1 cells transfected with empty pcDNA3.1 vector; format: cell-based, Chinese hamster; settings: 10^−14 to 10^−5 M, Fig. 6 G, H
Description: as §1, with “ArubRGP2. […]” for “ArubRGP2.”
as §3

[6] = target: Asterias rubens relaxin family peptide receptor/leucine-rich repeat G protein-coupled receptor 3 (isoform X2) (Asterias rubens)
[7] = target: modified ArubRXFP/LGR3 (N-terminal region with the predicted internal signal peptide replaced by the prolactin precursor signal peptide) (Asterias rubens)
[8] = target: Asterias rubens relaxin family peptide receptor/leucine-rich repeat G protein-coupled receptor 3 (isoform X2) (Asterias rubens); remark: listed apart in the source

| percentage of forskolin-induced cAMP levels (CRE reporter) in CHO-AsolRXFP/LGR3 cells at 10 µM AsolRGP2; no dose-response curve could be fitted (% forskolin response) [1] | EC50 of peptide-induced luminescence (GFP-apoaequorin G5A, chimeric G-protein GqS5) in CHO-K1 cells transfected with ArubRXFP/LGR3 [6] [nM] | EC50 of peptide-induced luminescence (GFP-apoaequorin G5A, chimeric G-protein GqS5) in CHO-K1 cells transfected with modified ArubRXFP/LGR3 [7] [nM] | EC50 of peptide-induced luminescence (GFP-apoaequorin G5A, chimeric G-protein GqS5) in CHO-K1 cells transfected with ArubRXFP/LGR3, 10^-14 to 10^-5 M [8] [nM] | Substance | luminescence response at 10^−5 M versus background [2] | EC50 [2] [nM] | luminescence response versus BSA control [2] | dose-dependent triggering of luminescence [2] | dose-dependent triggering of luminescence [3] | luminescence versus basal media [4] | luminescence response [4] | luminescence response [5] |
| --- | --- | --- | --- | --- | --- | --- | --- | --- | --- | --- | --- | --- |
| 12.2 | – | – | – | Acanthaster cf. solaris relaxin-like gonad-stimulating peptide 2 (ligand) | – | – | – | – | – | – | – | – |
| – | – | – | – | Asterias rubens Relaxin-like gonad-stimulating peptide 2 [ArubRGP2] | approximately twice the background luminescence | 383 | significantly higher | trigger dose-dependent luminescence | trigger dose-dependent luminescence | not significantly different | no response; also recorded: do not trigger luminescence | no response; also recorded: do not trigger luminescence |
| – | 25 | 110 | 22.5 | Asterias rubens relaxin-like gonad-stimulating peptide 1 (ligand) | – | – | – | – | – | – | – | – |
| – | – | – | – | Asterias rubens Relaxin-like gonad-stimulating peptide 1 [ArubRGP1] | approximately twice the background luminescence | 22.5 | significantly higher | trigger dose-dependent luminescence | trigger dose-dependent luminescence | not significantly different | no response; also recorded: do not trigger luminescence | no response; also recorded: do not trigger luminescence |
